Test results reported in patent US20240279227A1, “FUSED HETEROCYCLIC DERIVATIVES” (Janssen Sciences Ireland Unlimited Company, priority 2021, published 2024).

Experiments:
[1] = tested on: HBV; assay: Anti-HBV activity in HepG2.117 cell line (intracellular HBV DNA, real-time PCR); assay type: cell-based, hepatitis B virus; conditions: HepG2.117 cells, HBV replication induced, 3 days of treatment, intracellular HBV DNA by real-time PCR
Description: The anti HBV activity was measured using the HepG2.117 cell line, a stable, inducibly HBV producing cell line, which replicates HBV in the absence of doxycycline (Tet-off system). The HepG2 cell line is available from ATCCR under number HB-8065. Transfection of the HepG2 cell line can be as described in Sun and Nassal 2006 Journal of Hepatology 45 (2006) 636-645 “Stable HepG2-and Huh7-based human hepatoma cell lines for efficient regulated expression of infectious hepatitis B virus”.
For the antiviral assay, HBV replication was induced, followed by a treatment with serially diluted compound in 96-well plates. After 3 days of treatment, the antiviral activity was determined by quantification of intracellular HBV DNA using real-time PCR and an HBV specific primer set and probe.

[2] = Cytotoxicity, ATPlite Luminescence Assay; assay type: cell-based, human; conditions: human, HepG2 or HepG2.117 cells, 3-days incubation unless marked with *, ATPlite viability
Description: Cytotoxicity of the compounds was tested using HepG2 or HepG2.117 cells, incubated for 3 or 4 days in the presence of compounds. The viability of the cells was assessed using the PERKIN ELMER ATPlite Luminescence Assay System.”

[3] = Human liver microsome stability; assay type: in vitro ADME; conditions: 1 μM compound, NADPH 1 mM, pH 7.4, 37° C., 0-60 min; for HLM Metabolism t1/2: pooled human liver microsomes 0.5 mg/mL; for half-life at 1 μM: human, pooled human liver microsomes, pH 7.4, pooled human liver microsomes 0.5 mg/mL, read-out: HLM Metabolism t1/2
Description: Pooled human liver microsomes (0.5 mg/mL) was pre-incubated with 1 μM test compounds or control compounds (verapamil, warfarin and cerivastatin) in 0.1 M phosphate buffer pH 7.4 containing 1 mM MgCl2 at 37° C. The final concentration of DMSO and acetonitrile are 0.05% and 0.2%, respectively. All incubations are performed singularly for each compound. NADPH was added to initiate the reaction with the final concentration of 1 mM and the final incubation volume of 400 μL.
At 6 time points (0, 5, 10, 20, 40 and 60 min) reactions were stopped by the removal of 50 μL of the incubation mixture into plates containing acetonitrile at a of 1:3 (v:v). The plates were centrifuged at 3000 rpm for 10 min at 4° C. to precipitate the protein. Following protein precipitation, the sample supernatants were combined in cassettes of up to 8 compounds. The internal standard was added (1:1 supernatant to internal standard solution) and samples were analyzed using standard LC-MS conditions.
From a plot of ln peak area ratio (compound peak area/internal standard peak area) against time, the gradient of the line is determined. Subsequently, half-life is calculated using the equations below: […]

[4] = Hepatitis B virus, HepG2.117, 72 h

Structure (SMILES) | EC50 [1] | CC50 [2] | HLM Metabolism t1/2 [3] | EC50 [1, 4] | half-life at 1 μM [3]
CC(c1ccc(OC(F)F)cc1)N1C[C@@H](C(=O)NC2CC2)n2nc3c(c2C1=O)CN(C(=O)c1ccc(Cl)c(C#N)c1)[C@H](C)C3 (single isomer, unassigned) [Compound 26A, (3R,7S)-2-(4-Chloro-3-cyanobenzoyl)-N-cyclopropyl-9-((R*)-1-(4-(difluoromethoxy)phenyl)ethyl)-3-methyl-10-oxo-1,2,3,4,7,8,9,10-octahydropyrido[4′,3′:3,4]pyrazolo[1,5-a]pyrazine-7-carboxamide] | 0.19 µM | 29.7 µM | >3 h | – | –
CNC(=O)[C@@H]1CN(C(C)c2ccc(C(C)(C)O)cc2)C(=O)c2c3c(nn21)C[C@@H](C)N(C(=O)c1ccc(Cl)c(Cl)c1)C3 (single isomer, unassigned) [Compound 5B, (3R,7S)-2-(3,4-Dichlorobenzoyl)-9-((S*)-1-(4-(2-hydroxypropan-2-yl)phenyl)ethyl)-N,3-dimethyl-10-oxo-1,2,3,4,7,8,9,10-octahydropyrido[4′,3′:3,4]pyrazolo[1,5-a]pyrazine-7-carboxamide] | – | > 50 µM | – | 0.019 µM | 1.44 h
CNC(=O)[C@@H]1CN(C(C)c2ccc(OC(F)F)c(F)c2)C(=O)c2c3c(nn21)C[C@@H](C)N(C(=O)c1ccc(Cl)c(Cl)c1)C3 (single isomer, unassigned) [Compound 24A, (3R,7S)-2-(3,4-Dichlorobenzoyl)-9-((R*)-1-(4-(difluoromethoxy)-3-fluorophenyl)ethyl)-N,3-dimethyl-10-oxo-1,2,3,4,7,8,9,10-octahydropyrido[4′,3′:3,4]pyrazolo[1,5-a]pyrazine-7-carboxamide] | 0.054 µM | 20.6 µM | – | – | > 3 h
C[C@@H]1Cc2nn3c(c2CN1C(=O)c1ccc(Cl)c(Cl)c1)C(=O)N([C@@H](C)c1ccc(OC(F)F)cc1)CC3 [Ref 2, reference compound] | – | 19.8 µM | – | 0.026 µM | 0.117 h
CNC(=O)[C@@H]1CN([C@@H](C)c2cnc(C(F)(F)F)nc2)C(=O)c2c3c(nn21)C[C@@H](C)N(C(=O)c1ccc(Cl)c(Cl)c1)C3 [Compound 4B, (3R,7S)-2-(3,4-dichlorobenzoyl)-N,3-dimethyl-10-oxo-9-((S)-1-(2-(trifluoromethyl)pyrimidin-5-yl)ethyl)-1,2,3,4,7,8,9,10-octahydropyrido[4′,3′:3,4]pyrazolo[1,5-a]pyrazine-7-carboxamide] | – | > 50 µM | – | 0.16 µM | > 3 h
CNC(=O)[C@@H]1CN(C(C)c2ccc(C#N)cc2)C(=O)c2c3c(nn21)C[C@@H](C)N(C(=O)c1ccc(Cl)c(Cl)c1)C3 (single isomer, unassigned) [Compound 23A, (3R,7S)-9-((R*)-1-(4-Cyanophenyl)ethyl)-2-(3,4-dichlorobenzoyl)-N,3-dimethyl-10-oxo-1,2,3,4,7,8,9,10-octahydropyrido[4′,3′:3,4]pyrazolo[1,5-a]pyrazine-7-carboxamide] | 0.06 µM | > 50 µM | – | – | > 3 h
CNC(=O)[C@@H]1CN([C@H](C)c2cnc(C(F)(F)F)nc2)C(=O)c2c3c(nn21)C[C@@H](C)N(C(=O)c1ccc(Cl)c(Cl)c1)C3 [Compound 4A, (3R,7S)-2-(3,4-Dichlorobenzoyl)-N,3-dimethyl-10-oxo-9-((R)-1-(2-(trifluoromethyl)pyrimidin-5-yl)ethyl)-1,2,3,4,7,8,9,10-octahydropyrido[4′,3′:3,4]pyrazolo[1,5-a]pyrazine-7-carboxamide] | – | > 50 µM | – | 2.44 µM | > 3 h
CNC(=O)[C@@H]1CN(C(C)c2ccc(-n3cncn3)cn2)C(=O)c2c3c(nn21)C[C@@H](C)N(C(=O)c1ccc(Cl)c(Cl)c1)C3 (single isomer, unassigned) [Compound 40A, (3R,7S)-9-((R*)-1-(5-(1H-1,2,4-Triazol-1-yl)pyridin-2-yl)ethyl)-2-(3,4-dichlorobenzoyl)-N,3-dimethyl-10-oxo-1,2,3,4,7,8,9,10-octahydropyrido[4′,3′:3,4]pyrazolo [1,5-a]pyrazine-7-carboxamide] | 0.28 µM | > 50 µM | – | – | > 3 h
CNC(=O)[C@@H]1CN(C(C)c2ccc(NCC(F)(F)F)nc2)C(=O)c2c3c(nn21)C[C@@H](C)N(C(=O)c1ccc(Cl)c(Cl)c1)C3 (single isomer, unassigned) [Compound 33A, (3R,7S)-2-(3,4-Dichlorobenzoyl)-N,3-dimethyl-10-oxo-9-((R*)-1-(6-((2,2,2-trifluoroethyl)amino)pyridin-3-yl)ethyl)-1,2,3,4,7,8,9,10-octahydropyrido[4′,3′:3,4]pyrazolo[1,5-a]pyrazine-7-carboxamide] | – | > 50 µM | 0.798 h | 0.062 µM | –
CNC(=O)[C@@H]1CN(C(C)c2ccc(S(=O)(=O)C3CC3)cc2)C(=O)c2c3c(nn21)C[C@@H](C)N(C(=O)c1ccc(Cl)c(C(F)(F)F)c1)C3 (single isomer, unassigned) [Compound 20A, (3R,7S)-2-(4-Chloro-3-(trifluoromethyl)benzoyl)-9-((R*)-1-(4-(cyclopropylsulfonyl)phenyl)ethyl)-N,3-dimethyl-10-oxo-1,2,3,4,7,8,9,10-octahydropyrido[4′,3′:3,4]pyrazolo[1,5-a]pyrazine-7-carboxamide] | 0.089 µM | > 50 µM | – | – | > 3 h
CNC(=O)[C@@H]1CN(C(C)c2ccc(C(C)(C)O)cn2)C(=O)c2c3c(nn21)C[C@@H](C)N(C(=O)c1ccc(Cl)c(Cl)c1)C3 (single isomer, unassigned) [Compound 39A, (3R,7S)-2-(3,4-Dichlorobenzoyl)-9-((R*)-1-(5-(2-hydroxypropan-2-yl)pyridin-2-yl)ethyl)-N,3-dimethyl-10-oxo-1,2,3,4,7,8,9,10-octahydropyrido[4′,3′:3,4]pyrazolo[1,5-a]pyrazine-7-carboxamide] | 1.68 µM | > 50 µM | – | – | > 3 h
CNC(=O)[C@@H]1CN(C(C)c2cc(F)ccn2)C(=O)c2c3c(nn21)C[C@@H](C)N(C(=O)c1ccc(Cl)c(Cl)c1)C3 (single isomer, unassigned) [Compound 42A, (3R,7S)-2-(3,4-Dichlorobenzoyl)-9-((R*)-1-(4-fluoropyridin-2-yl)ethyl)-N,3-dimethyl-10-oxo-1,2,3,4,7,8,9,10-octahydropyrido[4′,3′:3,4]pyrazolo[1,5-a]pyrazine-7-carboxamide] | 0.28 µM | > 50 µM | – | – | > 3 h
CNC(=O)[C@@H]1CN(C(C)c2ccn(CC(F)(F)F)n2)C(=O)c2c3c(nn21)C[C@@H](C)N(C(=O)c1ccc(Cl)c(C(F)(F)F)c1)C3 (single isomer, unassigned) [Compound 14B, (3R,7S)-2-(4-chloro-3-(trifluoromethyl)benzoyl)-N,3-dimethyl-10-oxo-9-((S*)-1-(1-(2,2,2-trifluoroethyl)-1H-pyrazol-3-yl)ethyl)-1,2,3,4,7,8,9,10-octahydropyrido[4′,3′:3,4]pyrazolo[1,5-a]pyrazine-7-carboxamide] | – | > 50 µM | – | 0.031 µM | > 3 h
C[C@@H]1Cc2nn3c(c2CN1C(=O)c1ccc(Cl)c(Cl)c1)C(=O)N([C@H](C)c1ccc(OC(F)F)cc1)CC3 [Ref 1, reference compound] | – | > 50 µM | – | 0.069 µM | 0.257 h
CC(c1ccc(C(F)(F)F)nc1)N1C[C@@H](C(=O)N(C)C)n2nc3c(c2C1=O)CN(C(=O)c1ccc(Cl)c(Cl)c1)[C@H](C)C3 (single isomer, unassigned) [Compound 8B, (3R,7S)-2-(3,4-dichlorobenzoyl)-N,N,3-trimethyl-10-oxo-9-((S*)-1-(6-(trifluoromethyl)pyridin-3-yl)ethyl)-1,2,3,4,7,8,9,10-octahydropyrido[4′,3′:3,4]pyrazolo[1,5-a]pyrazine-7-carboxamide] | – | > 50 µM | – | 0.071 µM | > 3 h
